The source of these data is publication PMC11870044, “Exploring the Antibacterial and Antiparasitic Activity of Phenylaminonaphthoquinones—Green Synthesis, Biological Evaluation and Computational Study” (International Journal of Molecular Sciences, 2024).

One series deals with P. falciparum 3D7. Details: method as in PMID 33333397. To be noted: literature compounds of Figure 2; read-out: IC50 against the 3D7 strain; cited from earlier work.
In series [1] the test system is Enterococcus faecalis (ATCC 29212). The series is described as follows: Minimum inhibitory concentration, broth dilution method. It is filed as cell-based. The protocol: (§1) The microorganisms used were Staphylococcus aureus (ATCC 25923), Proteus mirabilis (ATCC 12453) Enterococcus faecalis (ATCC 29212), Escherichia coli (ATCC 25922), Salmonella typhimurium (ATCC 19585), and Klebsiella pneumoniae (ATCC 700603).
(§2) The antimicrobial activity of the phenylaminonaphthoquinones 1–12 was determined by the broth dilution method. The following concentrations were tested: 200, 100, 50, 25, and 12.5 μg/mL. After incubation, the microbial growth was examined. The results are expressed in minimum inhibitory concentration (MIC), the lowest concentration of phenylaminonaphthoquinones with no visible growth. The bactericidal/bacteriostatic activity was determined by sub-cultivation of the samples in normal culture media at appropriate temperatures and incubation times. The MIC of each compound was performed in triplicate. The compounds 1–12 were dissolved in DMSO. Cefazolin and cefotaxime were used as positive controls at the same compound concentrations.

For series [2], the system named is Escherichia coli (ATCC 25922). Described as above. Format: cell-based. The procedure: as §1, §2
Series [3] has as its system Klebsiella pneumoniae (ATCC 700603). The series is described as above. Format: cell-based. The protocol: as §1, §2
The subject of series [4] is Proteus mirabilis (ATCC 12453). The series is described as above. Format: cell-based. The procedure: as §1, §2
The subject of series [5] is Salmonella typhimurium (ATCC 19585). Described as above. It is filed as cell-based. To be noted: Salmonella enterica, read-out: MIC S. typhimurium G−. The procedure: as §1, §2
Series [6] deals with Staphylococcus aureus (ATCC 25923). The series is described as above. To be noted: for MIC: Staphylococcus aureus; for MIC S. aureus G+: broth dilution. Format: cell-based. The procedure:
as §1, §2
(In general: Broth dilution looks for growth in wells or tubes with falling amounts of substance.)

Series [7] has as its system Plasmodium falciparum 3D7 (chloroquine-sensitive). The series can be described thus: In vitro antiplasmodial screening, parasitemia by flow cytometry. Format: cell-based. Also on record: Plasmodium falciparum 3D7 Growth Inhibition (%): concentration or dose not given beside the values. To be noted: for Plasmodium falciparum 3D7 Growth Inhibition (%): mean ± SD; for IC50: Plasmodium falciparum, read-out: Plasmodium falciparum 3D7 IC50. The procedure: (§3) The antimalarial activity assay was performed using Plasmodium falciparum 3D7 (chloroquine-sensitive) and FCR-3 (chloroquine-resistant) reference strains, which were cultured in vitro following the method described by Trager et al. with some modifications.
(§4) The experiments were performed in 96-well culture plates, where the stock solutions of compounds 1–12 (1, 0.1, 0.01, and 0.001 µg/mL) were tested. A total of 100 µL of each product was distributed in triplicate on the culture plates, and 100 µL of a red blood cell suspension (4% hematocrit, final parasitemia of 1% ring stage) was added, resulting in a final volume of 200 µL. The test plates were incubated at 37 °C for 48 h, and parasitemia was determined by flow cytometry (BDFACScalibur). Erythrocytes were taken from each well culture plate, and 100 µL of ethidium bromide (10 µg/mL) was added and incubated for 30 min. A total of 100,000 cells per well culture plate were acquired and analyzed. The IC50 of the pure products was determined by a regression curve of the percentage inhibition of parasite activity as a function of the logarithmic dose. Chloroquine diphosphate was used as the reference drug.

Series [8] deals with Plasmodium falciparum FCR-3 (chloroquine-resistant). The series is described as above. Details: Plasmodium falciparum FCR-3 Growth Inhibition (%): concentration or dose not given beside the values. It is filed as cell-based. To be noted: for Plasmodium falciparum FCR-3 Growth Inhibition (%): mean ± SD; for IC50: Plasmodium falciparum, read-out: Plasmodium falciparum FCR-3 IC50. The protocol: as §3, §4

Series [9] in a line: Experimental log P, shake-flask method n-octanol/water. Format: physicochemical. The settings on record: 25 ± 1 °C. The protocol:
The mixture was then allowed to stand for 24 h at the same temperature for further phase separation. A stock solution with a concentration of 0.01 mol per liter in water, pre-saturated with n-octanol, was prepared for each compound. Duplicate test vessels containing a mixture of the stock solution and n-octanol (pre-saturated with water) were shaken on a vortex shaker for 5 min. Phase separation was achieved by centrifugation of the vessels for 3 min at 4000× g (25 ± 1 °C), and the concentration of the solute in the water phase (C water) was measured from their absorbance at 205 nm using a UV spectrophotometer. The partition coefficient was calculated using the following equation. Log Po/w = Log(C n-octanol/C water)
All the measurements were carried out at room temperature (25 ± 1 °C). In order to check the performance of the method, aniline was used as a reference substance.

Setting [10] is: ATCC29212, broth dilution, triplicate, read-out: MIC E. faecalis G+.
[11] abbreviates: ATCC25922, broth dilution, triplicate, read-out: MIC E. coli G−.
The mark [12] stands for this setting: ATCC700603, broth dilution, triplicate, read-out: MIC K. pneumonia G−.
The mark [13] stands for this setting: ATCC12453, broth dilution, triplicate, read-out: MIC P. mirabilis G+.
The mark [14] stands for this setting: ATCC25923, broth dilution, triplicate, read-out: MIC S. aureus G+.
The mark [15] stands for this setting: 3D7 chloroquine-sensitive, 48 h.
Setting [16] is: FCR-3 chloroquine-resistant, 48 h.
[17] abbreviates: FCR3, FCR-3 chloroquine-resistant, 48 h.

Converted amounts (≈) assume the structure as drawn. Like-named read-outs stand apart in the source and are kept apart here.

In the case of `NC1=CC(=O)c2ccccc2C1=O` [Compound 2-amino], the IC50 in the series on P. falciparum 3D7 is 5.14 µM.

Consider `O=C1C=C(Nc2ccccc2)C(=O)c2ccccc21` [Compound 1, 2-phenylamino-1,4-naphthoquinone], for which the MIC in series [1] (setting [10]) is 49.9 µg/mL (≈ 200 µM); in [2] (setting [11]), 26.3 µg/mL (≈ 106 µM); in series [3] (setting [12]), > 50 µg/mL; in series [4] (setting [13]), 40 µg/mL (≈ 160 µM); in [5] (broth dilution, triplicate), 38.8 µg/mL (≈ 156 µM); in series [6] (setting [14]), 3.2 to 5.7 µg/mL (≈ 12.8 to 22.9 µM). Moreover, in series [6] (triplicate), the “MIC S. aureus G+” value is 3.9 µg/mL (≈ 15.6 µM). The “Plasmodium falciparum 3D7 Growth Inhibition (%)” value in series [7] (setting [15]) is 58.0 ± 3.0%. The IC50 in [7] (setting [15]) was 0.16 µg/mL (≈ 0.642 µM); in series [8] (setting [17]) it was 0.74 µg/mL (≈ 2.97 µM). The “Plasmodium falciparum FCR-3 Growth Inhibition (%)” value in series [8] (setting [16]) was determined as 65.0 ± 1.0%. Moreover, the logP in [9] is 1.42 ± 0.21.

On to `COc1ccc(NC2=CC(=O)c3ccccc3C2=O)cc1` [Compound 7], for which the minimal inhibitory concentration (MIC) in [1] (ATCC29212, read-out: MIC E. faecalis G+) is 31.2 µg/mL (≈ 112 µM); in series [2] (ATCC25922, read-out: MIC E. coli G−) it was > 50 µg/mL; in series [3] (ATCC700603, read-out: MIC K. pneumonia G−), 37.3 µg/mL (≈ 134 µM); in series [4] (ATCC12453, read-out: MIC P. mirabilis G+) it was 18.4 µg/mL (≈ 65.9 µM); in [5] it was 29.9 µg/mL (≈ 107 µM); in [6] (ATCC25923, read-out: MIC S. aureus G+, broth dilution, triplicate) it was 3.2 to 5.7 µg/mL (≈ 11.5 to 20.4 µM). For the same compound, the “MIC S. aureus G+” value in series [6] (triplicate) is 5.7 µg/mL (≈ 20.4 µM). Besides, in series [7] (setting [15]), the “Plasmodium falciparum 3D7 Growth Inhibition (%)” value was determined as 49.0 ± 2.0%. The IC50 in series [7] (3D7, 48 h) is > 1 µg/mL; in [8] (FCR3, 48 h), 0.88 µg/mL (≈ 3.15 µM). In addition, the “Plasmodium falciparum FCR-3 Growth Inhibition (%)” value in [8] (setting [16]) is given as 57.0 ± 1.0%. Moreover, in series [9], the logP is 1.39 ± 0.15.

`COc1ccc(NC2=C(Cl)C(=O)c3ccccc3C2=O)cc1` [Compound 8]: the MIC was 40.1 µg/mL (≈ 128 µM) in [1] (setting [10]); > 50 µg/mL in series [2] (setting [11]); 49.1 µg/mL (≈ 156 µM) in [3] (setting [12]); 52.6 µg/mL (≈ 168 µM) in series [4] (setting [13]); 49.9 µg/mL (≈ 159 µM) in series [5] (broth dilution, triplicate); 21.9 µg/mL (≈ 69.8 µM) in series [6] (setting [14]). For the same compound, in [7] (setting [15]), the “Plasmodium falciparum 3D7 Growth Inhibition (%)” value is on record as 26.0 ± 2.0%. The IC50 in series [7] (setting [15]) and in series [8] (setting [17]) was > 1 µg/mL throughout. Besides, the “Plasmodium falciparum FCR-3 Growth Inhibition (%)” value in series [8] (setting [16]) was 34.0 ± 2.0%. The compound also came in with a logP in [9] of 1.81 ± 1.04.

For orientation: IC50 means the midpoint of a concentration-inhibition curve. As a reminder, the MIC is the least concentration at which growth counts as inhibited. As usually defined, the logP is the decadic logarithm of the partition coefficient of the neutral form, usually between octanol and water.
